Holding throughout (format): biochemical
The target in assay [1] is T1, UL97 H520Q (Human cytomegalovirus, UniProt Q68101, H520Q).
T1 construct: PCR reaction to generate the full length UL97; honey bee melittin secretion signal (N); made in house; host or cells: Sf21 insect cells, recombinant baculovirus (pMelBac C)
T1 sequence (Q68101 1-707 H520Q): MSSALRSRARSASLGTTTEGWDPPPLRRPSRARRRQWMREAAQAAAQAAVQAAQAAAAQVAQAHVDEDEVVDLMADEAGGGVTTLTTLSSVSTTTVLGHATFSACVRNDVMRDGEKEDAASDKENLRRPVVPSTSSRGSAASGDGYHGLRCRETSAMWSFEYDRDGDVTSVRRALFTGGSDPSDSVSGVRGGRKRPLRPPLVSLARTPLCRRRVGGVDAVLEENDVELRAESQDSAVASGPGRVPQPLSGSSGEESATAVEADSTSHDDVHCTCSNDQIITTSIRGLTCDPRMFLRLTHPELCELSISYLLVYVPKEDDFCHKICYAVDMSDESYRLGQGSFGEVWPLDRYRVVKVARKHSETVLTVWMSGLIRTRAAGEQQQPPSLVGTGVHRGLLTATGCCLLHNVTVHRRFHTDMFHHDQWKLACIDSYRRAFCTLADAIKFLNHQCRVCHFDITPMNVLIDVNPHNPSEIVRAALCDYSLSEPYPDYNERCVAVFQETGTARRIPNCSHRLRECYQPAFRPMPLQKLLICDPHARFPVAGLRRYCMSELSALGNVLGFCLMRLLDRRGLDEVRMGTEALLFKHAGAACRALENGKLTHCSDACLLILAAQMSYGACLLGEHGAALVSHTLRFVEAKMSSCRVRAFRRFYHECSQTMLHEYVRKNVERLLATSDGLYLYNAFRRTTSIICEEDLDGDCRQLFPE
Nature of the assay: UL97 autophosphorylation protein kinase assay, H520Q. Here is the method: (§1) Analysis of the autophosphorylation of wild type and mutant UL97 protein species was performed by a standard protein kinase assay as previously described (46). Briefly, purified protein was added to 2× protein kinase buffer (100 mM Tris HCl, pH9.0, 20 mM MgCl2, 10 μM ATP, 4 mM DTT, 2 M NaCl) and 370 KBq [γ^32P] ATP (Amersham), made up to 20 μl with SDW and incubated at 37°C. The reactions were terminated by the addition of 2× SDS sample buffer followed by boiling for 3 minutes. The amount of radiolabelled phosphate incorporated by autophosphorylation was analysed by SDS-PAGE and measured using the Biorad Mulitanalyst. The protein kinase assays were initially performed for 2 to 60 minutes to determine the maximum rate of phosphate incorporation, all assays were then performed at the maximum rate which equated to 5 minutes.
(§2) Enzyme kinetic analysis was performed on the purified wild type and mutant UL97 protein species as above using increasing concentrations of ATP (2 μM to 20 μM). The amount of incorporated radiolabelled phosphate was plotted against the concentration of ATP in a Lineweaver Burke plot to determine the Km for ATP for each UL97 species. […]

For assay [2], the target named is T2, UL97 D456A (Human cytomegalovirus, UniProt Q68101, D456A).
T2 construct: PCR reaction to generate the full length UL97; honey bee melittin secretion signal (N); made in house; host or cells: Sf21 insect cells, recombinant baculovirus (pMelBac C)
T2 sequence (Q68101 1-707 D456A): T1 sequence (Q68101 1-707 H520Q) with D456A, Q520H
The assay can be described thus: UL97 autophosphorylation protein kinase assay, D456A. The conditions noted are these: D456A mutant. Here is the method: as §1, §2

For assay [3], the target named is T3, wild type UL97 (Human cytomegalovirus, UniProt Q68101).
T3 construct: PCR reaction to generate the full length UL97; honey bee melittin secretion signal (N); made in house; host or cells: Sf21 insect cells, recombinant baculovirus (pMelBac C)
Nature of the assay: UL97 autophosphorylation protein kinase assay, wild type. Here is the method:
as §1
Enzyme kinetic analysis was performed on the purified wild type and mutant UL97 protein species as above using increasing concentrations of ATP (2 μM to 20 μM). The amount of incorporated radiolabelled phosphate was plotted against the concentration of ATP in a Lineweaver Burke plot to determine the Km for ATP for each UL97 species. The effect of maribavir upon the rate of radiolabelled phosphate incorporation by wild type or mutant UL97 was determined by protein kinase assays at a fixed concentration of maribavir (0.5 μM) as above, or with increasing concentrations of maribavir (0.01 μM to 5.0 μM) to determine the IC50 of maribavir for each UL97 species. In order to determine the nature of the inhibition mediated by maribavir, plots of 1/v vs 1/ATP with increasing concentrations of maribavir were constructed. Competitive inhibition was evident if the family of lines cconverged on the y-axis at 1/Vmax. The change in slope caused by the addition of maribavir was used to calculate the Ki using standard enzyme kinetic equations viz.

Each structure is given as a SMILES string. Residue numbers refer to the chain shown, from its start.

T3 sequence (Q68101 whole entry): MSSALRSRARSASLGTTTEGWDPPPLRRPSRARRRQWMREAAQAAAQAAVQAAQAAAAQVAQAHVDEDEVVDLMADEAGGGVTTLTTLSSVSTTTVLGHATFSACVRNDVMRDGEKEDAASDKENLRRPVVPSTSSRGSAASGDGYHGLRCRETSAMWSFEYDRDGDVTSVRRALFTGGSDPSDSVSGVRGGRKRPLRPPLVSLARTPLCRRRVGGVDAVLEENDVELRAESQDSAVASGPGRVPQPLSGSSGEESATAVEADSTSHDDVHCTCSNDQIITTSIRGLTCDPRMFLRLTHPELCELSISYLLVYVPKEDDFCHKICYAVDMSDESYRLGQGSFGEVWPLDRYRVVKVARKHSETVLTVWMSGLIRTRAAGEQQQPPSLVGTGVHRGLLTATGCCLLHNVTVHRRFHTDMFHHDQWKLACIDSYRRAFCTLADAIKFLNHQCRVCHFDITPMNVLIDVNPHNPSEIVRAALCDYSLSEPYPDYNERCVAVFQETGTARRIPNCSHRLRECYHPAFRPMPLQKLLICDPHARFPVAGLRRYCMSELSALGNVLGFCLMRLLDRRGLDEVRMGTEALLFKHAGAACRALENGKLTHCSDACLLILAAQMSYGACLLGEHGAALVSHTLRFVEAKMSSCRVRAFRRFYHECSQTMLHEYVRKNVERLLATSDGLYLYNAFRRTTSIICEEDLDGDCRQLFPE

As a reminder, the IC50 is the concentration at which inhibition is half-maximal. As usually defined, the Ki is the dissociation constant of the complex between target and ligand, obtained from inhibition or displacement. On to `CC(C)Nc1nc2cc(Cl)c(Cl)cc2n1[C@H]1O[C@@H](CO)[C@H](O)[C@@H]1O` [maribavir, 5,6-dichloro-2-(isopropylamino)-1-beta-L-ribofuranosyl-1H-benzimidazole], for which the IC50 amounted to 33 nM in assay [1] (H520Q mutant); 34 nM in assay [2]; 34 nM in assay [3] (wild type UL97, increasing concentrations of maribavir). Further, the “% autophosphorylation Plus Maribavir” value in assay [3] (maribavir 0.5 μM, normalised relative to wild type, mean and SD of triplicate) is 4.5 ± 2.0%. The “nature of the inhibition” value in assay [3] (wild type UL97, 1/v vs 1/ATP with increasing maribavir) is reported as “competitive inhibitor of ATP”. For the same compound, in assay [3] (wild type UL97, competitive with ATP (2 μM to 20 μM), Lineweaver Burke plot), the Ki turned out to be 10 nM.

As a reminder, the Km is the substrate concentration at which the rate is half of its maximum. Regarding `Nc1ncnc2c1ncn2[C@@H]1O[C@H](COP(=O)(O)OP(=O)(O)OP(=O)(O)O)[C@@H](O)[C@H]1O` [ATP], the Michaelis-Menten constant (Km) in assay [1] (H520Q, read-out: Km for ATP) is 25 ± 2.4 µM; in assay [3] (wild type UL97, ATP 2 μM to 20 μM, 5 minutes), 27 ± 2.2 µM.

These data come from publication PMC3050433, “The effects of maribavir on the autophosphorylation of ganciclovir resistant mutants of the cytomegalovirus UL97 protein” (Herpesviridae, 2010).
